# Assay results as given in a melting point compilation (Tetko et al.; mined from patent text by program, amines drawn as free bases though some values may be those of a salt).
row,melting point [°C],Structure (SMILES)
1,179 to 181,Cc1cnn(-c2ccc(C(=O)N3Cc4cccn4Cc4ccccc43)cc2)c1
2,160,COc1ccc(S(=O)(=O)N(CCn2ccnc2)c2ccc(Cl)cc2Cc2c(F)cccc2F)cc1OC
3,< 20,CCOC(=O)C(C)(C)Oc1ccc(-c2ccc(CCNC(=O)c3cc(OC)c(OC)c(OC)c3)cc2)cc1
4,200 to 201,O=C(O)c1cccc(C(c2cc(F)ccc2F)S(=O)(=O)c2ccc(Cl)cc2)n1 (stereo not drawn)
5,196,Cc1[nH]c(=S)n(Nc2cccc(Cl)c2)c1-c1cccc(Br)c1
6,140 to 143,Cc1nc(SCC(=O)c2cc(-c3ccc(C(F)(F)F)cc3)oc2C)sc1CC(=O)O
7,97 to 99,COC(=O)c1cccc(Oc2ccc([N+](=O)[O-])cc2C(=O)OC)c1
8,57 to 60,CCCC(=O)c1cnc2c(F)cccc2c1Cl
9,205 to 207,CCCCCc1cc2c(nc(O)n2CC2CCN(C(=O)C3CC3)CC2)c(N)n1
10,170 to 175,COCc1cc(OC)c(-c2ccc(C[C@H](NC(=O)c3c(F)cccc3Cl)C(=O)O)cc2)c(OC)c1
11,165 to 166,NS(=O)(=O)c1ccc(NC(=O)[C@@H]2CCCN2C(=O)OCc2ccccc2)cc1
12,56 to 60,CS(=O)(=O)N[C@@H](CCCCNC=O)C(=O)NC[C@H](CC1(C(=O)N[C@@H](Cc2ccc(O)cc2)C(=O)O)CCCC1)C(=O)O
13,130,CC(C(=O)O)c1cccc(NC(=O)NCC(=O)N2[C@@H](c3cccc(F)c3F)SC[C@H]2C(=O)OC(C)(C)C)c1 (stereo partly drawn)
14,175,CCCCc1ncc(CC(Cc2cccs2)C(=O)O)n1Cc1ccc(C(=O)O)cc1 (stereo not drawn)
15,178 to 180,N#CN1CCN(c2nn(S(=O)(=O)c3ccccc3)c3ccccc23)CC1
16,108,Cc1ccc(S(=O)(=O)N2CCCC2c2cccs2)cc1 (racemic)
17,238 to 240,Oc1ccc2c(c1)CCCC(c1ccccc1)=C2c1ccc(OCCCl)cc1
18,122 to 124,S=C(NCCCN1CCCC1)NCCCN(Cc1ccc(Cl)c(Cl)c1)c1ccc(Br)cn1
19,174 to 177,O=C(CNC(=O)c1ccc(C(=O)C=C(c2cc(Cl)cc(C(F)(F)F)c2)C(F)(F)F)c2ccccc12)NCC(F)(F)F

# More lines, now with the values behind:
row,Structure (SMILES),melting point [°C]
1,CC(=O)NCCC(=O)NCCO,122 to 125
2,CCOP(=O)(CCOC(=O)c1c(I)c(NC(C)=O)c(I)c(NC(C)=O)c1I)OCC,249 to 251
3,Cc1ccc2nc(C)c(CCN3CCC(c4noc5cc(F)ccc45)CC3)c(=O)n2c1,187
4,CC(C)OC(=O)c1ncn2c1[C@@H]1CCCN1C(=O)c1ccccc1-2,207 to 208
5,Fc1cnc2[nH]ccc2c1,110
6,CNC(=S)NS(=O)(=O)c1cc2c(cc1OC)OC(C)(C)C(NC(=O)c1cc(Cl)ccc1OC)C2 (stereo not drawn),234 to 235
7,NNc1nccc(-c2ccccc2)n1,116 to 118
8,NC(=O)NC1CCC(=O)c2ccsc21 (stereo not drawn),240 to 241
9,Cn1c(=O)c(-c2ccc(Cl)cc2Cl)cc2c3cc(-c4c[nH]nn4)ccc3n(C)c21,274 to 275
10,CCC(=O)N1CCC(NC(=O)NC2CCCCC2)CC1,177 to 179
11,CC(C(O)c1ccc(O[Si](C(C)C)(C(C)C)C(C)C)c(F)c1)N1CCC(O)(c2ccc(F)cc2)CC1 (stereo not drawn),159 to 160
12,CC1(C)OC(=O)C(=[N+]=[N-])C(=O)O1,93 to 94
13,CCOc1cc2c(cc1S(=O)(=O)NC(=O)NC)C(CNC(=O)N1CC(C)=C(CC)C1=O)CCO2 (stereo not drawn),187 to 188
14,COc1ccc(C(=O)O)c(C)c1C,214
15,COc1nc(C(=O)O)ccc1C#N,235 to 237
16,COC(=O)c1cncn1C1c2ccccc2CCC1(C)C (stereo not drawn),66 to 67.5
17,CCn1nnc2cc3c(cc2c1=O)OC1CCCN1C3=O (stereo not drawn),186 to 188
18,O=C1CCc2ccc(Oc3c(F)cc(C(F)(F)F)cc3Cl)cc21,75
19,CC1(CSc2ccccc2)COC2(CCCCCCCCCCC2)OO1 (stereo not drawn),89
